Reference: patent US9149038B2, “4-amino-6-(heterocyclic)picolinates and 6-amino-2-(heterocyclic)pyrimidine-4-carboxylates and their use as herbicides” (Dow AgroSciences LLC, priority 2013, dated 2015)
Read-outs that look alike come from different tables or passages of the source.

Tests used:
[1] = tested on: Key Broadleaf Weed and Crop Species; assay: Post-Emergent Test II: postemergent herbicidal activity, visual rating after 14 d (Table 7); type: in vivo; conditions: post-emergence, 336 h; for pest or weed control at 35 g/ha: 35 g ai/ha; for pest or weed control at 70 g/ha: 70 g ai/ha; for pest or weed control at 140 g/ha: 140 g ai/ha
How it was run: (§1)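 Visual scoring at 14 d, 0 (no injury) to 100 (complete kill), relative to untreated plants. Postemergent overhead track-sprayer application, 187 L/ha, at a top rate plus serial ½×–1/16× rates, to plants grown 7–21 d at about 23–29° C day under a 15 h photoperiod, then subirrigated.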

[2] = tested on: Key Grass and Sedge Weeds as well as Grass Crops; assay: Post-Emergent Test II: postemergent herbicidal activity, visual rating after 14 d (Table 8); type: in vivo; conditions: post-emergence, 336 h; for pest or weed control at 35 g/ha: 35 g ai/ha; for pest or weed control at 70 g/ha: 70 g ai/ha; for pest or weed control at 140 g/ha: 140 g ai/ha
How it was run: as §1

[3] = lambsquarters (Chenopodium album), read-out: Visual Growth Reduction (%) 14 Days After Application CHEAL
[4] = oilseed rape, canola (Brassica napus), read-out: Visual Growth Reduction (%) 14 Days After Application BRSNN
[5] = redroot pigweed (Amaranthus retroflexus), read-out: Visual Growth Reduction (%) 14 Days After Application AMARE
[6] = sunflower (Helianthus annuus), read-out: Visual Growth Reduction (%) 14 Days After Application HELAN
[7] = velvetleaf (Abutilon theophrasti), read-out: Visual Growth Reduction (%) 14 Days After Application ABUTH
[8] = wild poinsettia (Euphorbia heterophylla), read-out: Visual Growth Reduction (%) 14 Days After Application EPHHL
[9] = barnyardgrass (Echinochloa crus-galli), read-out: Visual Growth Reduction (%) 14 Days After Application ECHCG
[10] = giant foxtail (Setaria faberi), read-out: Visual Growth Reduction (%) 14 Days After Application SETFA
[11] = maize, corn (Zea mays), read-out: Visual Growth Reduction (%) 14 Days After Application ZEAMX
[12] = rice (Oryza sativa), read-out: Visual Growth Reduction (%) 14 Days After Application ORYSA
[13] = wheat, spring (Triticum aestivum), read-out: Visual Growth Reduction (%) 14 Days After Application TRZAS
[14] = yellow nutsedge (Cyperus esculentus), read-out: Visual Growth Reduction (%) 14 Days After Application CYPES

For COc1c(N)nc(-c2cc3c(cc2F)OC(F)(F)O3)nc1C(=O)O [Compound 68], which pest or weed control at 35 g/ha [1, 3] is on record?
Its pest or weed control at 35 g/ha is 0 to 29%.

What about the pest or weed control at 70 g/ha [1, 3] of the same compound?
Its pest or weed control at 70 g/ha is 0 to 29%.

What about the pest or weed control at 140 g/ha [1, 3] of the same compound?
Its pest or weed control at 140 g/ha is 0 to 29%.

And the pest or weed control at 35 g/ha [1, 4]?
Its pest or weed control at 35 g/ha is 0 to 29%.

And the pest or weed control at 70 g/ha [1, 4]?
The pest or weed control at 70 g/ha was 0 to 29%.

And the pest or weed control at 140 g/ha [1, 4]?
The pest or weed control at 140 g/ha was 0 to 29%.

And the pest or weed control at 35 g/ha [1, 5]?
Its pest or weed control at 35 g/ha is 0 to 29%.

And the pest or weed control at 70 g/ha [1, 5]?
The pest or weed control at 70 g/ha was 0 to 29%.

And the pest or weed control at 140 g/ha [1, 5]?
Its pest or weed control at 140 g/ha is 0 to 29%.

What about the pest or weed control at 35 g/ha [1, 6] of the same compound?
The pest or weed control at 35 g/ha was 30 to 44%.

What about the pest or weed control at 70 g/ha [1, 6] of the same compound?
The pest or weed control at 70 g/ha was 45 to 59%.

And the pest or weed control at 140 g/ha [1, 6]?
The pest or weed control at 140 g/ha was 60 to 74%.

And the pest or weed control at 35 g/ha [1, 7]?
Its pest or weed control at 35 g/ha is 0 to 29%.

And the pest or weed control at 70 g/ha [1, 7]?
Its pest or weed control at 70 g/ha is 0 to 29%.

What about the pest or weed control at 140 g/ha [1, 7] of the same compound?
Its pest or weed control at 140 g/ha is 0 to 29%.

And the pest or weed control at 35 g/ha [1, 8]?
Its pest or weed control at 35 g/ha is 75 to 84%.

And the pest or weed control at 70 g/ha [1, 8]?
The pest or weed control at 70 g/ha was 95 to 100%.

And the pest or weed control at 140 g/ha [1, 8]?
The pest or weed control at 140 g/ha was 95 to 100%.

And the pest or weed control at 35 g/ha [2, 9]?
Its pest or weed control at 35 g/ha is 60 to 74%.

And the pest or weed control at 70 g/ha [2, 9]?
Its pest or weed control at 70 g/ha is 60 to 74%.

And the pest or weed control at 140 g/ha [2, 9]?
The pest or weed control at 140 g/ha was 75 to 84%.

What about the pest or weed control at 35 g/ha [2, 10] of the same compound?
Its pest or weed control at 35 g/ha is 60 to 74%.

And the pest or weed control at 70 g/ha [2, 10]?
Its pest or weed control at 70 g/ha is 60 to 74%.

What about the pest or weed control at 140 g/ha [2, 10] of the same compound?
Its pest or weed control at 140 g/ha is 60 to 74%.

And the pest or weed control at 35 g/ha [2, 11]?
Its pest or weed control at 35 g/ha is 45 to 59%.

What about the pest or weed control at 70 g/ha [2, 11] of the same compound?
The pest or weed control at 70 g/ha was 60 to 74%.

And the pest or weed control at 140 g/ha [2, 11]?
The pest or weed control at 140 g/ha was 75 to 84%.

What about the pest or weed control at 35 g/ha [2, 12] of the same compound?
Its pest or weed control at 35 g/ha is 0 to 29%.

What about the pest or weed control at 70 g/ha [2, 12] of the same compound?
The pest or weed control at 70 g/ha was 0 to 29%.

And the pest or weed control at 140 g/ha [2, 12]?
Its pest or weed control at 140 g/ha is 0 to 29%.

And the pest or weed control at 35 g/ha [2, 13]?
Its pest or weed control at 35 g/ha is 0 to 29%.

And the pest or weed control at 70 g/ha [2, 13]?
The pest or weed control at 70 g/ha was 45 to 59%.

What about the pest or weed control at 140 g/ha [2, 13] of the same compound?
The pest or weed control at 140 g/ha was 45 to 59%.

What about the pest or weed control at 35 g/ha [2, 14] of the same compound?
Its pest or weed control at 35 g/ha is 0 to 29%.

What about the pest or weed control at 70 g/ha [2, 14] of the same compound?
Its pest or weed control at 70 g/ha is 0 to 29%.

And the pest or weed control at 140 g/ha [2, 14]?
The pest or weed control at 140 g/ha was 0 to 29%.
